{"source": "patent US9096593B2", "about": "“Compounds and methods for kinase modulation, and indications therefor” (Plexxikon Inc., priority 2009, dated 2015)", "assay": "Turbidity assay of relative solubility in aqueous buffers", "type": "physicochemical", "settings": "pH 4.5 (SIF)", "description": "As an indication of relative solubility, the turbidity of compounds in aqueous solutions is assessed. To assess possible compound properties in different physiological compartments, such as stomach, intestine, and blood, a series of aqueous buffers with varying pH is used. Thus each compound is diluted into four different physiologically relevant buffers and solution turbidity is measured by spectrophotometry.\nCompounds are dissolved at a concentration of 25 mM in dimethyl sulfoxide, then serially diluted 1:1 into a 96 well plate, diluting 10 times in pure dimethyl sulfoxide, with the final well of each row a dimethyl sulfoxide blank. In an assay plate, 99 μL of appropriate buffer is added to each well, and 1 μL of each sample dilution is added to the buffer, achieving a range of final total concentrations in aqueous solutions having different pH. The buffers used are Simulated Gastric Fluid (SGF-pH 1.5) 0.5M NaCl, pH 1.5; Simulated Intestinal fluid (SIF-pH 4.5 and pH 6.8) 0.05M NaH2PO4, pH 4.5 and 6.8; and Hepes Buffer (HEPES-pH 7.4) 10 mM HEPES, 150 mM NaCl, pH 7.4. Control compounds pyrene, estriol and propranolol HCl are also assessed. Plates are spun and then mixed for 1 minute, and the absorbance is read using a Tecan Safire II to read wavelengths in the visible range (490, 535, and 650 nm) at four locations per well, reflecting the degree of turbidity present. The average optical density for each wavelength in each well is graphed vs. compound concentration, and the concentration at which the curve crosses a threshold O.D. of 0.01 for each wavelength is reported as the endpoint turbidity assay result. The average of the three wavelengths is used to compare turbidity of compounds. Compounds are considered to have low solubility if the threshold concentration is <31.3 μM, moderate solubility if the threshold concentration is 31.3 μM to 250 μM, and high solubility if the threshold concentration is >250 μM."}
{"smiles": "COc1ncc(F)cc1CNc1ccc(Cc2c[nH]c3ncc(C#N)cc23)c(F)n1", "note": "[Compound P-2193, 3-{2-Fluoro-6-[(5-fluoro-2-methoxy-pyridin-3-ylmethyl)-amino]-pyridin-3-ylmethyl}-1H-pyrrolo[2,3-b]pyridine-5-carbonitrile]", "values": [{"measurement": "turbidity threshold (L, M, H) 4.5", "value": "L (low solubility if the threshold concentration is <31.3 μM)"}]}
